# Tests used:
# [1] = tested on: NNC #2 (full-length replicon) cells; test: Anti-HCV activity using full-length replicon cells (HCV genomic RNA, real-time RT-PCR); assay type: cell-based; conditions: for anti-HCV activity (in words): FIGS. 3 to 6; for EC50: HCV genomic RNA level, 3 days
# Method: (§1) The 70% confluent #50-1 (subgenomic replion) cells or NNC #2 (full-length replicon) cells (Ishii et al., J. Virol., 2006, vol. 80, pp. 4510-4520) were dispersed in a culture bottle with the aid of trypsin, and the resulting dispersion was resuspended in a high-glucose Dulbecco's modified Eagle medium (DMEM) containing 10% FCS and 1 mg/ml G418 (Sigma) (see FIGS. 1 and 2). The cell suspension adjusted at 5×10^4 cells/ml with the use thereof was added to wells of a 96-well culture plate at 100 μl/well (the final cell density in each well: […]), and culture was conducted at 37° C. Supernatants of culture media were removed from wells of the plate on the following day, 200 μl each of the solutions of test compounds appropriately diluted with a G418-free culture solution were added, and culture was further continued. Samples were prepared from cells in each well 3 days later with the use of the TaqMan® Gene Expression Cell-to-CT® (Applied Biosystems). Reverse transcription was carried out in accordance with the protocols for the ABI 7500 PCR systems (Applied Biosystems) at 37° C. for 60 minutes, 95° C. for 5 minutes, and retained at 4° C. Real-time PCR was carried out in accordance with the protocols for the ABI 7500 real-time PCR systems (Applied Biosystems) at 50° C. for 2 minutes, 95° C. for 10 minutes, 40 cycles at 95° C. for 15 seconds, and 60° C. for 1 minute.
# (§2) In accordance with the method mentioned above, the level of the HCV genomic RNA and, as the internal standard, the level of mRNA of glyceraldehyde-3-phosphate dehydrogenase (GAPDH) (a house keeping gene of the host cells) were assayed, and a percentage (%) relative to the level of RNA of a control group to which the test compound was not administered was determined. The dose-response relationship of the test compound was analyzed based on the measured level of the HCV genomic RNA to determine EC50, and the dose-response relationship of the test compound was analyzed based on the measured level of GAPDH RNA to determine CC50. The term “EC50” and “CC50” used herein refers to 50% effective concentration (μM) and 50% cytotoxic concentration (μM), respectively.
# [2] = tested on: NNC #2 (full-length replicon) cells; test: Cytotoxicity in full-length replicon cells (GAPDH mRNA, real-time RT-PCR); assay type: cell-based; conditions: GAPDH RNA level, 3 days
# Method: (§3) The 70% confluent #50-1 (subgenomic replion) cells or NNC #2 (full-length replicon) cells (Ishii et al., J. Virol., 2006, vol. 80, pp. 4510-4520) were dispersed in a culture bottle with the aid of trypsin, and the resulting dispersion was resuspended in a high-glucose Dulbecco's modified Eagle medium (DMEM) containing 10% FCS and 1 mg/ml G418 (Sigma) (see FIGS. 1 and 2). The cell suspension adjusted at 5×10^4 cells/ml with the use thereof was added to wells of a 96-well culture plate at 100 μl/well (the final cell density in each well: […]), and culture was conducted at 37° C. […]
# (§4) In accordance with the method mentioned above, the level of the HCV genomic RNA and, as the internal standard, the level of mRNA of glyceraldehyde-3-phosphate dehydrogenase (GAPDH) (a house keeping gene of the host cells) were assayed, and a percentage (%) relative to the level of RNA of a control group to which the test compound was not administered was determined. The dose-response relationship of the test compound was analyzed based on the measured level of the HCV genomic RNA to determine EC50, and the dose-response relationship of the test compound was analyzed based on the measured level of GAPDH RNA to determine CC50. […]
# [3] = tested on: #50-1 (subgenomic replion) cells; test: Anti-HCV activity using subgenomic replicon cells (HCV genomic RNA, real-time RT-PCR); assay type: cell-based; conditions: for EC50: HCV genomic RNA level, 3 days; for anti-HCV activity (in words): Table 1
# Method: as §1, §2
# [4] = tested on: #50-1 (subgenomic replion) cells; test: Cytotoxicity in subgenomic replicon cells (GAPDH mRNA, real-time RT-PCR); assay type: cell-based; conditions: GAPDH RNA level, 3 days
# Method: as §1, §2
# [5] = tested on: Subgenomic HCV RNA replicon cells (LucNeo#2) having a luciferase gene; test: Anti-HCV activity using replicon cells (luciferase assay); assay type: cell-based; conditions: Hepatitis C virus, 72 h
# Method: Subgenomic HCV RNA replicon cells (LucNeo#2, Goto et al., Biochem. Biophys. Res. Commun., 2006, vol. 343, pp. 879-884) having a luciferase gene were suspended in a Dulbecco's modified Eagle medium (DMEM) containing 10% FBS and 1 mg/ml G418 (Sigma). The cells were incubated for 24 hours and then cultured in G418-free fresh media each containing test compounds at various concentrations for 3 days. In order to perform luciferase assays, the cells were washed with PBS and treated with a lysate for 10 minutes with intermittent agitation. A cell lysate (25 μl) was transferred to a white microtiter plate. Luciferase assay reagents (100 μl, Promega, Tokyo) were added to each well and the luciferase activity was measured with a luminometer.
# (§5) Based on the luciferase assay results, the HCV genomic RNA level was measured, and a percentage (%) relative to the level of RNA of a control group to which the test compound was not administered was determined. Based on the results of tetrazolium staining, cell survival rates (%) of the group to which the test compound had been administered and of a control group were determined. The dose-response relationship of the test compound was analyzed based on the results of quantitative luciferase assays to determine EC50(μM), and the dose-response relationship of the test compound was analyzed based on the results of tetrazolium staining to determine CC50.
# [6] = Cytotoxicity (cell survival rate) by tetrazolium staining in luciferase replicon cells; assay type: cell-based; conditions: human, subgenomic HCV RNA replicon cells (LucNeo#2), LucNeo#2 subgenomic replicon cells
# Method: A tetrazolium staining solution (10 μl, Seikagaku Corporation, Tokyo) was added to each well in order to examine cytotoxicity (a cell survival rate). After the cells were incubated for 1 hour, the absorbance at the characteristic absorption wavelength (450 nm) was measured with the use of a microplate reader.
# as §5
# [7] = Cytotoxicity in subgenomic replicon cells (GAPDH mRNA, real-time RT-PCR); assay type: cell-based; conditions: human, #50-1 (subgenomic HCV replicon) cells, GAPDH RNA level
# Method: as §1, §2
# [8] = Cytotoxicity in full-length replicon cells (GAPDH mRNA, real-time RT-PCR); assay type: cell-based; conditions: human, NNC #2 (full-length HCV replicon) cells, GAPDH RNA level
# Method: as §3, §4
# [9] = tested on: HCV replicon cells; conditions: inhibiting the replication of the HCV genome, Non-Patent Document 8; cited from earlier work
SMILES,CC50 [4] [µM],"EC50 ([3]; Hepatitis C virus, 72 h) [µM]",CC50 at 3 days [7] [µM],anti-HCV activity (in words) [3],further results
"CCCCn1c(=O)c2ccccc2c2cc(C(O)(C(F)(F)F)C(F)(F)F)ccc21 [AA-24, 2-(1′,1′,1′,3′,3′,3′-hexafluoro-2′-hydroxypropan-2′-yl)-5-butyl-phenanthridin-6(5H)-one]",20.5,–,–,–,anti-HCV activity (in words) [1]: high degree of anti-HCV activity; EC50 [1]: 2.8 µM; CC50 [2]: 11.9 µM; EC50 [3]: 4 µM
"O=c1c2ccccc2c2cc(C(O)(C(F)(F)F)C(F)(F)F)ccc2n1CC1CCCCC1 [AA-26, 2-(1′,1′,1′,3′,3′,3′-hexafluoro-2′-hydroxypropan-2′-yl)-5-cyclohexylmethyl-phenanthridin-6(5H)-one]",–,–,–,–,anti-HCV activity (in words) [1]: high degree of anti-HCV activity
"CCCCn1c(=O)c2ccccc2c2c(OC)c(C(O)(C(F)(F)F)C(F)(F)F)ccc21 [KZ34, 5-butyl-2-(1′,1′,1′,3′,3′,3′-hexafluoro-2′-hydroxypropan-2-yl)-1-methoxy-phenanthridin-6(5H)-one]",–,–,–,–,EC50 [5]: 7.2 µM; CC50 at 3 days [6]: 25.3 µM
"CCCCn1c(=O)c2ccccc2c2cc3c(cc21)C(C)(C)CCC3(C)C [MN256, 6-butyl-8,9,10,11-tetrahydro-8,8,11,11-tetramethylbenzo[2,3-b]phenanthridin-5(6H)-one]",–,5,31.7,–,–
"CCCCn1c(=O)c2ccccc2c2ccc3ccccc3c21 [MN305, 5-butylbenzo[c]phenanthridin-6(5H)-one]",24.3,19.5,–,–,–
"CCCCn1c(=O)c2c3ccccc3ccc2c2ccccc21 [MN306, 6-butylbenzo[i]phenanthridin-5(6H)-one]",–,29.9,> 40,very high degree of anti-HCV activity at non-cytotoxic concentrations,–
"CCCCn1c(=O)c2ccccc2c2c3ccccc3ccc21 [MN313-A, 6-butylbenzo[a]phenanthridin-5(6H)-one]",44.5,29.1,–,very high degree of anti-HCV activity at non-cytotoxic concentrations,–
"CCCCn1c(=O)c2ccccc2c2cc3ccccc3cc21 [MN313-B, 6-butylbenzo[b]phenanthridin-5(6H)-one]",–,3.2,6.3,very high degree of anti-HCV activity at non-cytotoxic concentrations,–
"CCCCn1c(=O)c2ccc3ccccc3c2c2ccccc21 [MN314-A, 5-butylbenzo[k]phenanthridin-6(5H)-one]",31.4,> 31.4,–,–,–
"CCCCn1c(=O)c2cc3ccccc3cc2c2ccccc21 [MN314-B, 5-butylbenzo[j]phenanthridin-6(5H)-one]",> 40,–,33.5,very high degree of anti-HCV activity at non-cytotoxic concentrations,–
"CCCCn1c(=O)c2ccccc2c2cc(C(C)(C)C)ccc21 [MN325, 5-butyl-2-tert-butylphenanthridin-6(5H)-one]",–,6.1,34.4,–,–
"CCCCn1c(=O)c2ccccc2c2cc(C(C)C)ccc21 [PN-iPr, 5-butyl-2-isopropylphenanthridin-6(5H)-one]",–,4,20.5,–,"EC50 ([1]; Hepatitis C virus, NNC2, 72 h): 16.4 µM; CC50 at 3 days [8]: 27.7 µM"
COc1cc(NC(=O)Nc2cccc(CNC(=O)O[C@H]3CCOC3)c2)ccc1-c1cnco1 [VX497],–,–,–,–,IC50 [9]: 0.5 µM
